Assay results reported in patent publication US4808584A, “Quinolinecarboxylic acid derivatives and antibacterial agent containing the same” (Kanebo, Ltd., priority 1987, dated 1989).
Values after ≈ are worked out from the molar mass of the structure shown. Structures can show the parent of a compound that is named as a salt. Where two headings read alike, the source gives them in different places.

How the values were obtained:
Assay in all cases: Minimum inhibitory concentration (MIC)
Format in all cases: cell-based
[1] = test system: Escherichia coli NIHJ JC-2; conditions: NIHJJC2; Escherichia coli NIHJ JC-2, Gram -
Experimental: (§1) The compounds of the present invention (A, C, E, F, G, H and I) and ofloxacin as control were dissolved in 0.1N aqueous potassium hydroxide to prepare a solution of 5000 μg/ml in concentration. The compounds of the present invention (B, D and J) were dissolved in sterilized distilled water to prepare a solution of 5000 μg/ml in concentration. Each solution was diluted with sterilized distilled water to prepare a standard solution with a concentration of each test compound: 1000 μg/ml. The test was carried out by a method approved by Japan Society of Chemotherapy [cf. Chemotherapy, 29, 76-79 (1981)(TOKYO)].

Escherichia coli KC-14 = conditions: KC14; Escherichia coli KC-14, Gram -
Experimental: as §1

[2] = test system: Citrobacter freundii NIHJ 10018-68; conditions: NIHJ10018; Citrobacter freundii NIHJ 10018-68, Gram -
Experimental: as §1

[3] = test system: Streptococcus faecalis IID 682; conditions: Enterococcus faecalis, IID682, Streptococcus faecalis IID 682, Gram +
Experimental: as §1

[4] = test system: Staphylococcus aureus FDA 209P JC-1; conditions: FDA209P; Staphylococcus aureus FDA 209P JC-1, Gram +
Experimental: as §1

[5] = test system: Acinetobacter calcoaceticus AC 54; conditions: for MIC: Acinetobacter calcoaceticus, AC54, Acinetobacter calcoaceticus AC 54, Gram -
Experimental: as §1

[6] = test system: Staphylococcus epidermidis IAM-1296; conditions: for MIC: Staphylococcus epidermidis, IAM1296, Staphylococcus epidermidis IAM-1296, Gram +
Experimental: as §1

[7] = test system: Pseudomonas aeruginosa E-2; conditions: E2; Pseudomonas aeruginosa E-2, Gram -
Experimental: as §1

[8] = test system: Enterobacter aerogenes ATCC 13048; conditions: for MIC: Klebsiella aerogenes, ATCC13048, Enterobacter aerogenes ATCC 13048, Gram -
Experimental: as §1

Proteus vulgaris OX-19 = test system: Proteus vulgaris OX-19
Experimental: as §1

[9] = test system: Pseudomonas aeruginosa IFO 3445; conditions: Pseudomonas aeruginosa, IFO3445, Pseudomonas aeruginosa IFO 3445, Gram -
Experimental: as §1

[10] = test system: Pseudomonas aeruginosa NCTC 10490; conditions: for MIC: Pseudomonas aeruginosa, NCTC10490, Pseudomonas aeruginosa NCTC 10490, Gram -
Experimental: as §1

Shigella sonnei EW-33 = conditions: EW33; Shigella sonnei EW-33, Gram -
Experimental: as §1

[11] = test system: Morganella morganii IFO 3848; conditions: IFO3848; Morganella morganii IFO 3848, Gram -
Experimental: as §1

[12] = test system: Proteus mirabilis IFO 3849; conditions: IFO3849; Proteus mirabilis IFO 3849, Gram -
Experimental: as §1

[13] = test system: Serratia marcescens IAM 1184; conditions: Serratia marcescens, IAM1184, Serratia marcescens IAM 1184, Gram -
Experimental: as §1

[14] = test system: Salmonella typhimurium IID 971; conditions: Salmonella typhimurium IID 971, Gram -; for MIC: Salmonella enterica, read-out: Minimum inhibitory concentration (MIC)
Experimental: as §1

Enterobacter cloacae 963 = conditions: Enterobacter cloacae 963, Gram -
Experimental: as §1

[15] = test system: Staphylococcus aureus IID 803; conditions: IID803; Staphylococcus aureus IID 803, Gram +; read-out: Minimum inhibitory concentration (MIC)
Experimental: as §1

[16] = test system: Bacillus subtilis ATCC 6633; conditions: ATCC6633; Bacillus subtilis ATCC 6633, Gram +; read-out: Minimum inhibitory concentration (MIC)
Experimental: as §1

[17] = test system: Micrococcus luteus ATCC 9341; conditions: ATCC9341; Micrococcus luteus ATCC 9341, Gram +
Experimental: as §1

[18] = test system: Klebsiella pneumoniae PCI 602; conditions: for MIC: Klebsiella pneumoniae, PCI602, Klebsiella pneumoniae PCI 602, Gram -, read-out: Minimum inhibitory concentration (MIC)
Experimental: as §1

[19] = OX19, Proteus vulgaris OX-19, Gram -, read-out: Minimum inhibitory concentration (MIC)

## CN1CCN(c2c(F)cc3c(=O)c(C(=O)O)c4scc5n4c3c2OC5)CC1 [Compound (A), 9,1-Epoxymethano-7-fluoro-8-(4-methyl-1-piperazinyl)-5-oxo-5H-thiazolo[3,2-a]quinoline-4-carboxylic acid]
[1]
  MIC: 0.1 µg/mL (≈ 0.257 µM)
Escherichia coli KC-14
  MIC: 0.1 µg/mL (≈ 0.257 µM)
[2]
  MIC: 0.2 µg/mL (≈ 0.514 µM)
[3]
  MIC: 0.39 µg/mL
[4]
  MIC: 0.2 µg/mL
[5]
  MIC: 0.2 µg/mL (≈ 0.514 µM)
[6]
  MIC: 0.39 µg/mL
[7]
  MIC: 0.78 µg/mL (≈ 2 µM)
[8]
  MIC: 0.1 µg/mL (≈ 0.257 µM)
Proteus vulgaris OX-19; [19]
  MIC: 0.05 µg/mL (≈ 0.128 µM)
[9]
  MIC: 0.78 µg/mL (≈ 2 µM)
[10]
  MIC: 0.78 µg/mL (≈ 2 µM)
Shigella sonnei EW-33
  MIC: 0.05 µg/mL (≈ 0.128 µM)
[11]
  MIC: 0.1 µg/mL (≈ 0.257 µM)
[12]
  MIC: 0.2 µg/mL (≈ 0.514 µM)
[13]
  MIC: 0.2 µg/mL (≈ 0.514 µM)
[14]
  MIC: 0.05 µg/mL (≈ 0.128 µM)
Enterobacter cloacae 963
  MIC: 0.1 µg/mL (≈ 0.257 µM)
[15]
  MIC: 0.2 µg/mL (≈ 0.514 µM)
[16]
  MIC: 0.1 µg/mL (≈ 0.257 µM)
[17]
  MIC: 1.56 µg/mL

## O=C(O)c1c(=O)c2cc(F)c(N3CCNCC3)c3c2n2c(csc12)CO3 [Compound (C), 9,1-Epoxymethano-7-fluoro-8-(1-piperazinyl)-5-oxo-5H-thiazolo[3,2-a]quinoline-4-carboxylic acid]
[1]
  MIC: 0.1 µg/mL (≈ 0.266 µM)
Escherichia coli KC-14
  MIC: 0.1 µg/mL (≈ 0.266 µM)
[2]
  MIC: 0.2 µg/mL (≈ 0.533 µM)
[3]
  MIC: 0.78 µg/mL
[4]
  MIC: 0.39 µg/mL
[5]
  MIC: 0.78 µg/mL (≈ 2.08 µM)
[6]
  MIC: 0.78 µg/mL
[7]
  MIC: 0.78 µg/mL (≈ 2.08 µM)
[8]
  MIC: 0.1 µg/mL (≈ 0.266 µM)
Proteus vulgaris OX-19; [19]
  MIC: 0.1 µg/mL (≈ 0.266 µM)
[18]
  MIC: 0.05 µg/mL (≈ 0.133 µM)
[9]
  MIC: 0.78 µg/mL (≈ 2.08 µM)
[10]
  MIC: 0.39 µg/mL (≈ 1.04 µM)
Shigella sonnei EW-33
  MIC: 0.05 µg/mL (≈ 0.133 µM)
[11]
  MIC: 0.1 µg/mL (≈ 0.266 µM)
[12]
  MIC: 0.2 µg/mL (≈ 0.533 µM)
[13]
  MIC: 0.39 µg/mL (≈ 1.04 µM)
[14]
  MIC: 0.05 µg/mL (≈ 0.133 µM)
Enterobacter cloacae 963
  MIC: 0.2 µg/mL (≈ 0.533 µM)
[15]
  MIC: 0.39 µg/mL (≈ 1.04 µM)
[16]
  MIC: 0.2 µg/mL (≈ 0.533 µM)
[17]
  MIC: 3.13 µg/mL

## O=C(O)c1c(=O)c2cc(F)c(N3CCNCC3)c3c2n2c(csc12)CO3 [Compound (D), 9,1-Epoxymethano-7-fluoro-8-(1-piperazinyl)-5-oxo-5H-thiazolo[3,2-a]quinoline-4-carboxylic acid.hydrochloride.1/2hydrate]
[5]; Acinetobacter calcoaceticus AC 54, Gram -
  Minimum inhibitory concentration (MIC): 1.56 µg/mL
[6]; Staphylococcus epidermidis IAM-1296, Gram +
  Minimum inhibitory concentration (MIC): 1.56 µg/mL
[8]; Enterobacter aerogenes ATCC 13048, Gram -
  Minimum inhibitory concentration (MIC): 0.20 µg/mL
[18]; Klebsiella pneumoniae PCI 602, Gram -
  Minimum inhibitory concentration (MIC): 0.025 µg/mL
[10]; Pseudomonas aeruginosa NCTC 10490, Gram -
  Minimum inhibitory concentration (MIC): 0.78 µg/mL
[14]
  Minimum inhibitory concentration (MIC): 0.10 µg/mL

## CC1CN(c2c(F)cc3c(=O)c(C(=O)O)c4scc5n4c3c2OC5)CCN1 (centres unmarked) [Compound (E), 9,1-Epoxymethano-7-fluoro-8-(3-methyl-1-piperazinyl)-5-oxo-5H-thiazolo[3,2-a]quinoline-4-carboxylic acid.1/4hydrate]
[1]
  MIC: 0.2 µg/mL
Escherichia coli KC-14
  MIC: 0.1 µg/mL
[2]
  MIC: 0.78 µg/mL
[3]
  MIC: 0.78 µg/mL
[4]
  MIC: 0.2 µg/mL
[5]
  MIC: 0.78 µg/mL
[6]
  MIC: 0.78 µg/mL
[7]
  MIC: 0.78 µg/mL
[8]
  MIC: 0.1 µg/mL
Proteus vulgaris OX-19; Proteus vulgaris, OX19, read-out: Minimum inhibitory concentration (MIC)
  MIC: 0.05 µg/mL
[18]
  MIC: 0.025 µg/mL
[9]
  MIC: 1.56 µg/mL
[10]
  MIC: 0.78 µg/mL
Shigella sonnei EW-33
  MIC: 0.1 µg/mL
[11]
  MIC: 0.1 µg/mL
[12]
  MIC: 0.2 µg/mL
[13]
  MIC: 0.39 µg/mL
[14]
  MIC: 0.1 µg/mL
Enterobacter cloacae 963
  MIC: 0.2 µg/mL
[15]
  MIC: 0.2 µg/mL
[16]
  MIC: 0.1 µg/mL
[17]
  MIC: 3.13 µg/mL
